Experimental data published in patent publication US20070225335A1, “Pyrazole Derivatives for Treating Condit Ions Mediated by Activation of the Adeno Sine A2B or A3 Receptor” (priority 2004, published 2007).

Target: T1, human adenosine A2b receptor (Homo sapiens, UniProt P29275)
T1 construct: expressed in transfected cells; host or cells: CHO (Chinese Hamster Ovary) cells co-transfected with the reporter plasmid pCRE-LUCI
T1 sequence (P29275 1-332): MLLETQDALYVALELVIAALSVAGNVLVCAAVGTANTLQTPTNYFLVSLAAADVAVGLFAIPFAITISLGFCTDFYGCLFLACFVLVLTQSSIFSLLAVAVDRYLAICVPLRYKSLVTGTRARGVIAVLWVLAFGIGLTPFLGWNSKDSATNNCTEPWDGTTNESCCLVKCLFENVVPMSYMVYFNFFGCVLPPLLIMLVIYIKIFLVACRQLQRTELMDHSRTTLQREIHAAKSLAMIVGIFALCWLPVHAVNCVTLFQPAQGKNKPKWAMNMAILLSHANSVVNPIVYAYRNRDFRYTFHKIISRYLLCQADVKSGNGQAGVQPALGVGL
Assay: Adenosine A2b receptor reporter gene assay (luciferase, CHO-A2b cells, NECA agonist)
Type: cell-based
Details: CHO cells with pCRE-LUCI and human A2b receptor; shift of NECA concentration-response curve; antagonist at 100 nM or 1 μM; KB=[antagonist]/(concentration ratio−1)
Description: Adenosine A2b Receptor Reporter Gene Assay a) Culturing of Chinese Hamster Ovary (CHO) A2b Cell Line
CHO cells transfected with a Luciferase-expressing reporter plasmid (pCRE-LUCI) and with a plasmid carrying the human adenosine A2b receptor structural gene (pA2bRCV) are routinely cultured in Dulbecco's Modified Eagle Medium (DMEM)—supplemented with 10% v/v fetal calf serum (FCS), 2 mM L-glutamine, 0.4 mg/ml L-proline, 1 nM sodium selenite, 0.5 mg/ml Hygromycin B and 1 mg/ml Geneticin—at 37° C., 5% CO2 and 100% humidity. The cells are left to grow to confluence for 4-5 days. The cells obtained are passaged using trypsin/EDTA and split at a ratio of 1 in 5. […]
b) Preparation of cells for assay […]
5′-N-ethylcarboxamidoadenosine (NECA), an adenosine A2b agonist, is prepared as a […] solution in DMSO and then diluted to 100 μM with Assay Buffer. […] 100 μl of Steady-Glo, a Luciferase assay substrate from Promega, is added to all wells to lyse the cells and generate luminescence in proportion to the amount of Lucifrease produced. The plates are left for a minimum of 5 minutes before being read on the luminescence program of a Topcount NXT microplate scintillation counter (ex Packard). […]

Kb [nM] | SMILES
139 | N#Cc1ccc(NC(=O)c2cnn(-c3cccc(F)c3)c2-c2ccncc2)cc1 [Example 4, 1-(3-Fluoro-phenyl)-5-pyridin-4-yl-1H-pyrazole4-carboxylic acid (4-cyano-phenyl)-amide]
188 | O=C(Nc1cccnc1)c1cc(-c2ccncc2)n(-c2cccc(F)c2)n1 [Example 33, 1-(3-Fluoro-phenyl)-5-pyridin-4-yl-1H-pyrazole-3-carboxylic acid pyridin-3-ylamide]
